Measurements published in patent publication US20250041252A1, “POWDERS FOR INHALATION AND PRODUCTION PROCESS THEREOF” (UNIVERSITA' DEGLI STUDI DI PARMA, priority 2021, published 2025).

Settings: about 8 mg of LANE, end of test, filter wash
Description: The apparatus is consisting of an upper part, the donor chamber, and a lower part, the receiving chamber, held together by means of a metal clamp, but separated by a glass microfiber filter, used as a diffusion membrane, and placed horizontally in contact with the dissolution medium. The receiving chamber contains a magnetic stirrer.
The dissolution medium used for the analysis is phosphate buffered saline (PBS), prepared weighing 8 g of NaCl, 0.2 g of KCl, 1.44 g of Na2HPO4, and 0.12 g of KH2PO4 dissolved in 1 L of distilled water, with a final pH of 7.4. During the analysis, RespiCell™ was thermostated (Lauda eco silver E4, DE) at 37±0.5° C.
The receiving chamber was filled with PBS and sampled at pre-established time intervals through the side arm of the cell. Before the analysis 1 mL of the dissolution medium was applied on the filter, to get it completely wet.
To assess the not dissolved or trapped in the filter drug amount, the not dissolved residual powder was recovered washing the filter with 5 mL of a methanol:water 75:25 v/v mixture, at the end of the experiment. The drug amount in the samples was quantified by HPLC analysis.

CCN(CC)CC(=O)Nc1c(C)cccc1C [Lidocaine powder raw material, lidocaine]
Lidocaine retained on and inside the filter: 0.1 ± 0.0 mg
